In PMC3983855, “Identification and enzymatic characterization of acid phosphatase from Burkholderia gladioli” (BMC Research Notes, 2014) one finds Km data, which are given here for one molecule.

The subject of this assay is membrane-bound acid phosphatase (MBAcP). The following applies: read-out: K0.5; 50 mM acetate pH 6.0, 37°C; membrane fraction; n = 1.3.

`O=[N+]([O-])c1ccc(OP(=O)(O)O)cc1` [p-nitrophenylphosphate]: the Km stood at 65 µM.
